Assay results as given in patent US20180045744A1, “N[…] DRUG CONCENTRATIONS IN ORAL FLUIDS AND TESTING FOR POTENTIAL NON-[…] DRUG TREATMENT REGIMEN” (Ameritox, LLC, priority 2015, published 2018).

Assay: Oral fluid testing: concentration of the primary metabolite (parent drug) in oral fluid of patients
Type: in vivo, human
Procedure: In some embodiments, the amount of a drug in a subject is determined by analyzing a fluid of the subject. The term “fluid” as used herein refers to oral fluid and any liquid or pseudo-liquid obtained from the oral cavity of the subject. Non-limiting examples include saliva, mucus, and the like. In an embodiment, the fluid is oral fluid.
Determining the amount of a drug in oral fluid of the subject may be accomplished by use of any method known to those skilled in the art. Non-limiting examples for determining the amount of a drug in fluid of a subject include fluorescence polarization immunoassay (“FPIA,” Abbott Diagnostics), mass spectrometry (MS), gas chromatography-mass spectrometry (GC-MS-MS), liquid chromatography-mass spectrometry (LC-MS-MS), and the like. In one embodiment, LC-MS-MS methods known to those skilled in the art are used to determine a raw level, amount or concentration of a drug in oral fluid of the subject. In one embodiment, a raw level or concentration of a drug in oral fluid of a subject is measured and reported as a ratio, percent, or in relationship to the amount of fluid. The amount of fluid may be expressed as a unit volume, for example, in L, mL, μL, pL, ounce, etc. In one embodiment, the raw amount of a drug in oral fluid of a subject may be expressed as an absolute level or value, for example, in g, mg, pg, ng, pg, etc.
(§1) The results (drug concentration of the primary metabolite), demographic information (gender, weight, height, and age), and the prescribed dosage of hydrocodone for fifty randomly selected patients—not included in the patient population used to design the models—were used to assess the validity and robustness of the models.
as §1, with “oxycodone” for “hydrocodone”

| SMILES | concentration of the primary metabolite (parent drug) in oral fluid (Example 1: subject, 180 lbs, 65 inches, 30 mg daily dose of hydrocodone) [ng/mL] | concentration of the primary metabolite (parent drug) in the oral fluid (Example 2: subject, 225 lbs, 69 inches, 40 mg daily dose of hydrocodone) [ng/m I] | concentration of the primary metabolite (parent drug) in the oral fluid (Example 3: subject, 254 lbs, 71 inches, 90 mg daily dose of oxycodone) [ng/mL] | concentration of the primary metabolite (parent drug) in the oral fluid (Example 4: subject, 113 lbs, 64 inches, 60 mg daily dose) [ng/mL] |
| --- | --- | --- | --- | --- |
| COc1ccc2c3c1O[C@H]1C(=O)CC[C@H]4[C@@H](C2)N(C)CC[C@]314 [Hydrocodone, hydrocodone] | 34 | 101 |  |  |
| COc1ccc2c3c1O[C@H]1C(=O)CC[C@@]4(O)[C@@H](C2)N(C)CC[C@]314 [Oxycodone, oxycodone] |  |  | 429 | 50 |
